From patent US20120309717A1, “COMPOUNDS, METHODS AND PHARMACEUTICAL COMPOSITIONS FOR INHIBITING PARP” (EISAI INC., priority 2003, published 2012)

Key:
[1] = biological target: T1, purified recombinant human PARP (Homo sapiens, UniProt P09874); assay: PARP enzyme assay (IC50); assay type: biochemical; details: approximate values
T1 construct: purchased Trevigan (Gaithersburg, Md.)
Protocol: A convenient method to determine IC50 of a PARP inhibitor compound is a PARP assay using purified recombinant human PARP from Trevigan (Gaithersburg, Md.), as follows: The PARP enzyme assay is set up on ice in a volume of 100 microliters consisting of 100 mM Tris-HCl (pH 8.0), 1 mM MgCl2, 28 mM KCl, 28 mM NaCl, 0.1 mg/ml of DNase I activated herring sperm DNA (Sigma, Mo.), 3.0 micromolar [3H]nicotinamide adenine dinucleotide (470 mci/mmole), 7 micrograms/ml PARP enzyme, and various concentrations of the compounds to be tested. The reaction is initiated by incubating the mixture at 25° C. After 15 minutes of incubation, the reaction is terminated by adding 500 microliters of ice cold 20% (w/v) trichloroacetic acid. The precipitate formed is transferred onto a glass fiber filter (Packard Unifilter-GF/B) and washed three times with ethanol. After the filter is dried, the radioactivity is determined by scintillation counting.

[2] = system: P388D1 cells; assay: H2O2 induced cell death assay (cytoprotective effect, LDH release); assay type: cell-based, murine; details: Mus musculus, approximate values, concentration for 50% reduction of cell death, 2 mM H2O2, 4 h
Protocol: We used a H2O2 induced cell death assay to determine the cytoprotective effect of PARP inhibitors. P388D1 cells (CCL-46, ATCC), derived from a murine macrophage-like tumor, were maintained in Dulbeco's Modified Eagle Medium (DMEM) with 10% horse serum and 2 mM L-glutamine. The cytotoxicity assay was set up in a 96-well plate. In each well, 190 ul cells were seeded at 2×10^6/ml density. To determine the EC50, the concentration of a compound required to achieve 50% reduction of cell death, a dose response experiment was conducted. PARP inhibitors were added to the media to a final concentration of 0.01, 0.03, 0.1, 0.3, 1, 3, 10, 30 uM. After 15 min incubation with a PARP inhibitor, 5 ul of freshly prepared H2O2 were added to the cells to a final concentration of 2 mM. Cells were returned to 37° C. incubator for 4 h. At the end of incubation, 25 ul of supernatant were sampled from the cell media to determine the level of lactate dehydrogenase (LDH) released from dead cells. The LDH activity was determined by monitoring the rate of decrease of NADH absorbency at 340 nm. The group without drug treatment was used to calculate total cell death due to H2O2 treatment. Each data point was an average of quadruplicate. The EC50 was determined from a dose response curve.

[3] = system: ischemia and reperfusion of the heart; details: cited from earlier work
[4] = system: colitis; details: rats; cited from earlier work
[5] = system: human fibroblast cells lines (W138 or BJ cells); assay: proliferative capacity and lifespan of human fibroblast cells; assay type: cell-based
Protocol: At the time of subdivision, the media is aspirated, and the cells rinsed with phosphate buffer saline (PBS) and then trypsinized. The cells are counted with a Coulter counter and plated at a density of 10^5 cells per cm^2 in 6-well tissue culture plates in DMEM/199 medium supplemented with 10% bovine calf serum and varying amounts (0.10 μM, and 1 mM: from a 100× stock solution in DMEM/M199 medium) of a PARP inhibitor. This process is repeated every 7 days until the cells appear to stop dividing. The untreated (control) cells reach senescence and stop dividing after about 40 days in culture. […] The cells treated with 1 mM 3-AB will still divide after 60 days in culture.

[6] = system: endotoxic shock; details: cited from earlier work

T1 sequence (P09874 whole entry): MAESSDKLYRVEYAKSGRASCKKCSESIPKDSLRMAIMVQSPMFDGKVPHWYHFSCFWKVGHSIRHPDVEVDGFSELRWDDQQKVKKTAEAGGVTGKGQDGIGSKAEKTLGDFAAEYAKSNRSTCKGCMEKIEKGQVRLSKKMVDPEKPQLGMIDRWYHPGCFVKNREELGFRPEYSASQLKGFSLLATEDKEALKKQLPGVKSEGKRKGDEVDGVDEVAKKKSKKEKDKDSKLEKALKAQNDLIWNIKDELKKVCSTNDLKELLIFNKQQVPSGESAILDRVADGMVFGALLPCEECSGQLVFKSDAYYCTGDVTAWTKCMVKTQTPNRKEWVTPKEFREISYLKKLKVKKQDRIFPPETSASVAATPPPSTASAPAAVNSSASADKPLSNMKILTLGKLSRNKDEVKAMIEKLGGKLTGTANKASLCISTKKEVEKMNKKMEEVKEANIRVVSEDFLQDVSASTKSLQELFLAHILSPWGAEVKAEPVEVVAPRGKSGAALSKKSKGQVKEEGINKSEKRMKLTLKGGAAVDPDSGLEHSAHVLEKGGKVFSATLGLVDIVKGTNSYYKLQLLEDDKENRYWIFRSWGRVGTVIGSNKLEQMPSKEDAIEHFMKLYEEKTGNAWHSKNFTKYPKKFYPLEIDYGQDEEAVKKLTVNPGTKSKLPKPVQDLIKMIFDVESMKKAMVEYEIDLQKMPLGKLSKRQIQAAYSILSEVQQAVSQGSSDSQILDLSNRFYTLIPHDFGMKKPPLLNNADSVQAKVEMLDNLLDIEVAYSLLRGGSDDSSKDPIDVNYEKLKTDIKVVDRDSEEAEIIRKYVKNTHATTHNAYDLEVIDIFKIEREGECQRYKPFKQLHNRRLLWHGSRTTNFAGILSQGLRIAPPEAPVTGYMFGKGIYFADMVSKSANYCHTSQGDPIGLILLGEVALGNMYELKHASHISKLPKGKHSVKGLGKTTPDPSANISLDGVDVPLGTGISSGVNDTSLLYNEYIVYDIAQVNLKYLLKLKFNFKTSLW

Compound | IC50 ([1]; Table I) [nM] | EC50 ([2]; Table II) [nM] | IC50 ([1]; Table II) [nM] | other results
NNC(=O)C1=CNc2c(Cl)ccc3c(=O)[nH]nc1c23 | 749 | – | – | –
O=c1[nH]nc2c3c(cccc13)NC=N2 | 39 | – | – | EC50 ([2]; Table I): 350 nM
NNC(=O)C1=CNc2cccc3c(=O)[nH]nc1c23 | 14 | – | – | EC50 ([2]; Table I): 100 nM
NNC(=O)C1=Cc2n[nH]c(=O)c3ccc(NN)c(c23)N1 | 2790 | – | – | –
NNC(=O)C1=Cc2n[nH]c(=O)c3cccc(c23)N1 | 26 | – | – | EC50 ([2]; Table I): 510 nM
O=C(O)C1=Cc2n[nH]c(=O)c3cccc(c23)N1 | 160 | – | – | EC50 ([2]; Table I): 1700 nM
NC1=Nc2n[nH]c(=O)c3cccc(c23)N1 | 91 | – | – | EC50 ([2]; Table I): 640 nM
NNC(=O)C1=Nc2n[nH]c(=O)c3cccc(c23)N1 | 21 | – | – | EC50 ([2]; Table I): 240 nM
CC1=Cc2n[nH]c(=O)c3ccc(Cl)c(c23)N1 | 120 | – | – | –
O=c1[nH]nc2c3c(cccc13)NC(CO)=N2 | 26 | – | – | EC50 ([2]; Table I): 360 nM
O=c1[nH]nc2c3c(cccc13)NC(CNCCCc1ccccc1)=N2 | 87 | – | – | EC50 ([2]; Table I): 10 nM
CN(C)CC1=Nc2n[nH]c(=O)c3cccc(c23)N1 | 19 | – | – | EC50 ([2]; Table I): 130 nM
O=c1[nH]nc2c3c(cccc13)NC(CN1CCCCC1)=N2 | 19 | – | – | EC50 ([2]; Table I): 120 nM
O=c1[nH]nc2c3c(cccc13)NC(CN1CCCC1)=N2 | 18 | – | – | –
O=c1[nH]nc2c3c(cccc13)N=C(CN1CCOCC1)N2 | 18 | – | – | –
CC(=O)OC(C(=O)O)C(OC(C)=O)C(=O)NCc1ccc2c(c1)-c1n[nH]c(=O)c3cccc(c13)O2 (centres unmarked) | – | 2080 | 35 | –
NCc1ccc2c(c1)-c1n[nH]c(=O)c3cccc(c13)O2 | – | 2080 | 19 | –
O=c1[nH]nc2c3c(cccc13)Oc1ccc(CN3CCOCC3)cc1-2 | – | 300 | 67 | –
O=C(NCc1ccc2c(c1)-c1n[nH]c(=O)c3cccc(c13)O2)C1CCCN1 (centres unmarked) | – | 80 | 30 | –
N=C(N)NCc1ccc2c(c1)-c1n[nH]c(=O)c3cccc(c13)O2 | – | 1000 | 35 | –
CCN1CCN(Cc2ccc3c(c2)-c2n[nH]c(=O)c4cccc(c24)O3)CC1 | – | 120 | 60 | –
O=c1[nH]nc2c3c(cccc13)Oc1ccc(CN3CCN(CCO)CC3)cc1-2 | – | 80 | 101 | –
O=c1[nH]nc2c3c(cccc13)Oc1ccc(CN3CCN(CCOCCO)CC3)cc1-2 | – | 75 | 128 | –
NOCc1ccc2c(c1)-c1n[nH]c(=O)c3cccc(c13)O2 | – | 470 | 165 | –
O=c1[nH]nc2c3c(cccc13)Oc1ccc(CO)cc1-2 | – | 410 | 92 | –

Compound | IC50 ([1]; Table I) [nM] | EC50 ([2]; Table II) [nM] | IC50 ([1]; Table II) [nM] | other results
O=C(CCP(=O)(OCc1ccccc1)OCc1ccccc1)OCc1ccc2c(c1)-c1n[nH]c(=O)c3cccc(c13)O2 | – | – | 413 | –
O=C(CCl)OCc1ccc2c(c1)-c1n[nH]c(=O)c3cccc(c13)O2 | – | – | 177 | –
O=C(O)c1ccc2c(c1)-c1n[nH]c(=O)c3cccc(c13)O2 | – | – | 167 | –
CCOP(=O)(NCc1ccc2c(c1)-c1n[nH]c(=O)c3cccc(c13)O2)OCC | – | – | 275 | –
O=c1[nH]nc2c3c(cccc13)Oc1ccc(COP(=O)(O)O)cc1-2 | – | 750 | 34 | –
CN(C)c1ccc(/N=N/c2ccc(S(=O)(=O)NCc3ccc4c(c3)-c3n[nH]c(=O)c5cccc(c35)O4)cc2)cc1 | – | – | 1300 | –
C=COC(=O)c1ccc2c(c1)-c1n[nH]c(=O)c3cccc(c13)O2 | – | – | 89 | –
O=c1[nH]nc2c3c(cccc13)Oc1ccc(CN3CCNCC3)cc1-2 | – | 270 | 48 | –
Oc1cccc2c(O)nccc12 [1,5-dihydroxyisoquinoline] | – | – | – | reduction in infarct size ([3]; 1 mg/kg): 38-48%
NC(=O)c1cccc(N)c1 [3-amino-benzamide] | – | – | – | inflammatory response, distal colon [4]: reduced the inflammatory response; reduction in infarct size in the heart ([3]; single injection 10 mg/kg, one minute before occlusion or before reperfusion): 32-42%; effect on lifespan of the cells ([5]; 10 μM): little or no effect; effect on lifespan of the cells ([5]; 100 μM): lengthen the lifespan of the cells; effect on lifespan and proliferative capacity of the cells ([5]; 1 mM): dramatically increases the lifespan and proliferative capacity; time in culture at which cells still divide ([5]; 1 mM, untreated cells stop after about 40 days): > 60 days
CN(C)CCN(C)Cc1ccc2c(c1)-c1n[nH]c(=O)c3cccc(c13)O2 [10-{[(2-Dimethylamino-ethyl)-methyl-amino]-methyl}-2H-7-oxa-1,2-diaza-benzo[de]anthracen-3-one] | – | 170 | 100 | –
O=c1[nH]nc2c3c(cccc13)Oc1ccc(CN(CCO)CCO)cc1-2 [Compound 47, 10-{[Bis-(2-hydroxy-ethyl)-amino]-methyl}-2H-7-oxa-1,2-diaza-benzo[de]anthracen-3-one] | – | – | – | melting point: 222 to 225 °C
O=c1[nH]nc2c3c(cccc13)Oc1ccc(CN3CCC(N4CCCC4)CC3)cc1-2 [Compound 48, 10-(4-Pyrrolidin-1-yl-piperidin-1-ylmethyl)-2H-7-oxa-1,2-diaza-benzo[de]anthracen-3-one] | – | – | – | melting point: 258 to 264 °C
O=C(O)C(O)C(O)C(=O)NCc1ccc2c(c1)-c1n[nH]c(=O)c3cccc(c13)O2 (centres unmarked) [Compound 52, 2,3-Dihydroxy-N-(3-oxo-2,3-dihydro-7-oxa-1,2-diaza-benzo[de]anthracen-10-ylmethyl)-succinamic acid] | – | – | – | melting point: 181 to 185 °C
CN(C)c1ccc(N=Nc2ccc(S(=O)(=O)NCc3ccc4c(c3)-c3n[nH]c(=O)c5cccc(c35)O4)cc2)cc1 [Compound 55, 4-(4-Dimethylamino-phenylazo)-N-(3-oxo-2,3-dihydro-7-oxa-1,2-diaza-benzo[de]anthracen-10-ylmethyl)-benzenesulfonamide] | – | – | – | melting point: > 300 °C
CN(C)CC(=O)OCc1ccc2c(c1)-c1n[nH]c(=O)c3cccc(c13)O2 [Compound 59, Dimethylamino-acetic acid 3-oxo-2,3-dihydro-7-oxa-1,2-diaza-benzo[de]anthracen-10-ylmethyl ester] | – | – | – | melting point: 227 to 230 °C
O=c1[nH]nc2c3c(cccc13)Oc1ccc(COP(=O)(OCc3ccccc3)OCc3ccccc3)cc1-2 [Compound 60, Phosphoric acid dibenzyl ester 3-oxo-2,3-dihydro-7-oxa-1,2-diaza-benzo[de]anthracen-10-ylmethyl ester] | – | – | – | melting point: 223 to 225 °C
O=C(O)C(O)C(O)C(=O)NCc1ccc2c(c1)-c1n[nH]c(=O)c3cccc(c13)O2 (centres unmarked) [drawing 41] | – | 5270 | 21 | –
CN1CCN(Cc2ccc3c(c2)-c2n[nH]c(=O)c4cccc(c24)O3)CC1 [drawing 46] | – | 130 | 74 | –
O=c1[nH]nc2c3c(cccc13)Oc1ccc(CN(CCO)CCO)cc1-2 [drawing 52] | – | – | 38 | –
CN(C)CC(=O)OCc1ccc2c(c1)-c1n[nH]c(=O)c3cccc(c13)O2 [drawing 54] | – | – | 125 | –
O=c1[nH]nc2c3c(cccc13)Oc1ccc(COP(=O)(OCc3ccccc3)OCc3ccccc3)cc1-2 [drawing 55] | – | 520 | 86 | –
O=c1[nH]nc2c3c(cccc13)Oc1ccc(CN3CCC(N4CCCC4)CC3)cc1-2 [drawing 63] | – | 300 | – | –
NC(=O)c1cccnc1 [nicotinamide] | – | – | – | protection against vascular failure [6]: protects against delayed, NO-mediated vascular failure
